Assay results taken from patent US20260199242A1, “PROCESSES FOR MAKING CYCLIC LIPID IMPLANTS FOR INTRAOCULAR USE” (Allergan, Inc., priority 2006, published 2026).

Assays:
[1] = lower temperature and faster rate in a low pH environment; cited from earlier work
[2] = cited from earlier work
[3] = Potency of bimatoprost from melt-extruded implants as percent of label strength by HPLC (FIG. 1); assay type: physicochemical
Method: Typical extrusion temperatures for a PLGA implant are from about 85° C. to about 110° C. […] As shown by FIG. 1, five different formulation bimatoprost containing sustained release implants or drug delivery systems (“DDS”) were made. Proceeding from left to right to left along the x axis of FIG. 1 these five formulations were: The theoretical maximum potency of bimatoprost is by definition equal to the label strength (“LS”) of the bimatoprost. For example, the label strength of a one milligram implant which comprises 150 μg of bimatoprost is 150 μg. […] We determined the potency of the bimatoprost released from the implants made as a percent of their label strength using HPLC (high pressure liquid chromatography). Thus, the bimatoprost implants (each weighing about 1 mg) made were dissolved in 0.5 mL acetonitrile in a 10 mL volumetric flask and sonicated for 5 min. The flask was then filled to volume with diluent (72:18:10 water:acetonitrile:methanol); mixed well, and transferred to a HPLC vial for analysis. The HPLC analysis was performed using a Waters Alliance 2695 HPLC system, Waters Symmetry®C18 reverse-phase column 4.6 mm×75 mm, and a Waters 2487 UV detector. The conditions for analysis were flow rate of 1.5 mL/minute, UV wavelength of 210 nm, column temperature of 30° C. and mobile phase of 72:18:10 (water:acetonitrile:methanol, v/v/v) with 0.03% (w/v) trifluoroacetic acid. The injection volume of samples and standards assayed was 75 uL with a cycle time of 45 min.

[4] = system: patients with age-related macular degeneration (ARMD); settings: infusion; cited from earlier work

| SMILES | temperature above which bimatoprost can degrade if heated [1] | solubility in water [2] | potency of the bimatoprost released from the DDS (percent of label strength) ([3]; DDS made by melt extrusion carried out at 57° C.) | potency of the bimatoprost released from the DDS (percent of label strength) ([3]; DDS made by melt extrusion carried out at 85° C.) | bimatoprost therapeutically inactive (loss of potency) ([3]; extrusion temperature of about 80° C. or higher) | visual acuity [4] |
| --- | --- | --- | --- | --- | --- | --- |
| CCNC(=O)CCC/C=C\C[C@@H]1[C@@H](/C=C/[C@@H](O)CCc2ccccc2)[C@H](O)C[C@@H]1O [Bimatoprost] | greater than 65 °C | slightly soluble | more than 90% | about 40% | ≤ 50% |  |
| CCCCC[C@H](O)/C=C/[C@H]1[C@H](O)CC(=O)[C@@H]1CCCCCCC(=O)O [prostaglandin E1] |  |  |  |  |  | improvement in visual acuity |
